Data set [1] in a line: log P by HPLC on reversed-phase column (C 18), EEC Directive 79/831 Annex V.A8. The data set is classed as physicochemical. The conditions noted are these: 55° C.; for LOGP_HCOOH: log P (HCOOH). The protocol:
Temperature: 55° C. […] Called log P (HCOOH) in the table. […] Called log P (neutral) in the table.

The test system of data set [2] is Spodoptera frugiperda. The data set is described as follows: Spodoptera frugiperda spray test. The data set is classed as in vivo. Particulars: after 7 days, maize leaf discs. As for the experimental part: Spodoptera frugiperda—Spray Test
Solvent: 78.0 parts by weight of acetone • • 1.5 parts by weight of dimethylformamide
Emulsifier: alkylaryl polyglycol ether
To produce a suitable active ingredient formulation, 1 part by weight of active ingredient is dissolved with the specified parts by weight of solvent and made up with water containing an emulsifier concentration of 1000 ppm until the desired concentration is attained. To produce further test concentrations, the formulation is diluted with emulsifier-containing water.
Leaf discs of maize (Zea mays) are sprayed with an active ingredient formulation of the desired concentration and, after drying, populated with caterpillars of the armyworm (Spodoptera frugiperda).
After 7 days, the efficacy in % is determined. 100% means that all the caterpillars have been killed; 0% means that no caterpillar has been killed.

Where [3] appears, read: log P, neutral range, HPLC on reversed-phase column (C 18).
Where [4] appears, read: acidic range at pH 2.7, 0.1% aqueous formic acid and acetonitrile, HPLC on reversed-phase column (C 18).
Where [5] appears, read: acidic range pH 2.7, 0.1% aqueous formic acid and acetonitrile, reversed-phase column (C 18).

In data set [1] (setting [3]), `N#Cc1ccc(CNC(=O)c2cc(-c3ccc(OC(F)(F)F)cc3)cc(NC(=O)C3CCCC3)n2)cc1` [Example I-207] had an LOGP_NEUTRAL of 4.51. For the same compound, the “efficacy (caterpillars killed)” value in data set [2] (application rate 500 g/ha) is 100%.

In the case of `CC(=O)N(C)c1cc(-c2ccc(OC(F)(F)F)cc2)cc(C(=O)NCc2ccc(C#N)cc2)n1` [Example I-220], the LOGP_HCOOH in data set [1] (setting [4]) is on record as 3.39. Besides, the LOGP_NEUTRAL in data set [1] (setting [3]) stood at 3.35. The “efficacy (caterpillars killed)” value in data set [2] (application rate 500 g/ha) turned out to be 100%.

`COC(=O)C(C)NC(=O)c1cc(-c2ccc(OC(F)(F)F)cc2)cc(NC(=O)C2CC2)n1` (stereo not shown) [Example I-136] gave an LOGP_HCOOH in data set [1] (setting [4]) of 3.68. In addition, in data set [2] (application rate 500 g/ha), the “efficacy (caterpillars killed)” value turned out to be 100%.

As to `CC(C)C(=O)Nc1cc(-c2ccc(C(F)(F)F)cc2)cc(C(=O)NCc2ccc(Cl)nc2)n1` [Example I-014], in data set [1] (setting [5]), the LOGP_HCOOH is reported as 3.88. Also, in data set [1] (setting [3]), the LOGP_NEUTRAL was 3.81. Moreover, the “efficacy (caterpillars killed)” value in data set [2] (application rate 500 g/ha) is reported as 80%.

Turning to `N#Cc1ccc(CNC(=O)c2cc(-c3ccc(OC(F)(F)F)c(F)c3)cc(NC(=O)C3CC3)n2)cc1` [Example I-121], the LOGP_HCOOH in data set [1] (setting [4]) stood at 3.94. For the same compound, the LOGP_NEUTRAL in data set [1] (setting [3]) turned out to be 3.83. Besides, the “efficacy (caterpillars killed)” value in data set [2] (application rate 100 g/ha) was determined as 83%; in data set [2] (application rate 500 g/ha) it was 100%.

Regarding `O=C(NC1CCS(=O)(=O)C1)c1cc(-c2ccc(OC(F)(F)F)cc2)cc(NC(=O)C2CC2)n1` (stereo not shown) [Example I-187], in data set [1] (setting [4]), the LOGP_HCOOH is on record as 3.09. The compound also displayed an LOGP_NEUTRAL in data set [1] (setting [3]) of 3.00. For the same compound, the “efficacy (caterpillars killed)” value in data set [2] (application rate 500 g/ha) stood at 83%.

`O=C(NCC1CCCC1)c1cc(-c2ccc(OC(F)(F)F)cc2)cc(NC(=O)C2CC2)n1` [Example I-170] showed an LOGP_HCOOH in data set [1] (setting [4]) of 4.68. Moreover, the LOGP_NEUTRAL in data set [1] (setting [3]) was 4.55. The figures for the “efficacy (caterpillars killed)” value in data set [2] (application rate 100 g/ha) and in data set [2] (application rate 500 g/ha) were 83% and 100%, respectively.

Regarding `O=C(NCc1cc(F)c(Cl)cc1Cl)c1cc(-c2ccc(C(F)(F)F)cc2)cc(NC(=O)C2CC2)n1` [Example I-059], in data set [1] (setting [5]), the LOGP_HCOOH was 5.09. This compound had an LOGP_NEUTRAL in data set [1] (setting [3]) of 4.93. Also, the “efficacy (caterpillars killed)” value in data set [2] (application rate 500 g/ha) came to 100%.

The compound `O=C(NCc1ccc(Cl)cc1Cl)c1cc(-c2ccc(C(F)(F)F)cc2)cc(NC(=O)C2CC2)n1` [Example I-010] displayed an LOGP_HCOOH in data set [1] (setting [5]) of 5.00. The same compound displayed an LOGP_NEUTRAL in data set [1] (setting [3]) of 4.89. Besides, the “efficacy (caterpillars killed)” value in data set [2] (application rate 500 g/ha) was determined as 100%.

`N#Cc1ccc(CNC(=O)c2cc(-c3ccc(C(F)(F)C(F)(F)F)c(Cl)c3)cc(NC(=O)C3CC3)n2)cc1` [Example I-273] came in with an LOGP_HCOOH in data set [1] (setting [5]) of 4.45. For the same compound, the “efficacy (caterpillars killed)” value in data set [2] (application rate 500 g/ha) is 100%.

In data set [1] (setting [5]), `N#Cc1ccc(CNC(=O)c2cc(-c3ccc(OC(F)(F)F)cc3)cc(NC(=O)C3(C(F)(F)F)CC3)n2)cc1` [Example I-242] gave an LOGP_HCOOH of 4.57. For the same compound, the LOGP_NEUTRAL in data set [1] (log P (neutral), HPLC reversed-phase column (C 18)) is given as 4.63. Besides, the “efficacy (caterpillars killed)” value in data set [2] (application rate 500 g/ha) is 100%.

`N#Cc1ccc(CNC(=O)c2cc(-c3ccc(C4(C(F)(F)F)CC4)cc3)cc(NC(=O)C3CC3)n2)cc1` [Example I-193] registered an LOGP_HCOOH in data set [1] (setting [4]) of 4.12. Besides, the LOGP_NEUTRAL in data set [1] (setting [3]) is listed as 3.95. In addition, in data set [2] (application rate 500 g/ha), the “efficacy (caterpillars killed)” value is 100%.

Consider `CN(C(=O)c1cc(-c2ccc(C(F)(F)F)cc2)cc(NC(=O)C2CC2)n1)c1cccnc1` [Example I-034], for which the LOGP_HCOOH in data set [1] (setting [5]) is on record as 2.73. In addition, the LOGP_NEUTRAL in data set [1] (setting [3]) came to 2.72. Besides, the “efficacy (caterpillars killed)” value in data set [2] (application rate 500 g/ha) stood at 100%.

Regarding `N#Cc1ccc(CCNC(=O)c2cc(-c3ccc(C(F)(F)F)cc3)cc(NC(=O)C3CC3)n2)cc1` [Example I-046], the LOGP_HCOOH in data set [1] (setting [5]) was determined as 3.80. For the same compound, the LOGP_NEUTRAL in data set [1] (setting [3]) stood at 3.76. Moreover, in data set [2] (application rate 500 g/ha), the “efficacy (caterpillars killed)” value came out at 83%.

As for `N#Cc1ccc(CNC(=O)c2cc(-c3ccc(OC(F)(F)F)cc3)cc(NC(=O)c3cnco3)n2)cc1` [Example I-212], the LOGP_HCOOH in data set [1] (setting [4]) was determined as 3.44. Moreover, in data set [1] (setting [3]), the LOGP_NEUTRAL is given as 3.34. Further, in data set [2] (application rate 500 g/ha), the “efficacy (caterpillars killed)” value is recorded as 100%.

For `N#Cc1ccc(CNC(=O)c2cc(-c3ccc(C(F)(F)F)nc3F)cc(NC(=O)C3CC3)n2)cc1` [Example I-143], the LOGP_HCOOH in data set [1] (setting [4]) stood at 3.24. Moreover, the “efficacy (caterpillars killed)” value in data set [2] (application rate 100 g/ha) amounted to 100%.

Source of the values: US20190053492A1, “SUBSTITUTED PYRIDINE COMPOUNDS AS PESTICIDES” (Bayer CropScience Aktiengesellschaft, priority 2016, published 2019).
